Measured values: PubChem BioAssay AID1963977 (Molecular Pharmacology Branch, DTP, NCI, 2024)

System: 624824-186-R-J3-PDC multicell spheroids, viability
Test: Anticancer human tumor 624824-186-R-J3-PDC patient-derived colon adenocarcinoma cell line growth inhibition [PI3K]
Settings: for IC50: curve of first compound; for viability, T/C: stronger effect = lower value; active = viability on the fitted dose curve at most 10% of control; inactive = the rest
How it was run: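 Viability of mixed-cell spheroids was determined after exposure to pairwise combinations, one partner being inavolisib, alpelisib, duvelisib or copanlisib. Highest tested concentration matched clinical Cmax where known and 10 microM where not, descending in half-log steps.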

[1] = second compound 0.00316 µM, first compound 0.0316 µM
[2] = second compound 0.00316 µM, first compound 0.1 µM
[3] = second compound 0.00316 µM, first compound 0.316 µM
[4] = second compound 0.00316 µM, first compound 1 µM
[5] = second compound 0.00316 µM, first compound 3.16 µM
[6] = second compound 0.00316 µM, first compound 10 µM
[7] = second compound 0.01 µM, first compound 0.0316 µM
[8] = second compound 0.01 µM, first compound 0.1 µM
[9] = second compound 0.01 µM, first compound 0.316 µM
[10] = second compound 0.01 µM, first compound 1 µM
[11] = second compound 0.01 µM, first compound 3.16 µM
[12] = second compound 0.01 µM, first compound 10 µM
[13] = second compound 0.0316 µM, first compound 0.0316 µM
[14] = second compound 0.0316 µM, first compound 0.1 µM
[15] = second compound 0.0316 µM, first compound 0.316 µM
[16] = second compound 0.0316 µM, first compound 1 µM
[17] = second compound 0.0316 µM, first compound 3.16 µM
[18] = second compound 0.0316 µM, first compound 10 µM
[19] = second compound 0.1 µM, first compound 0.0316 µM
[20] = second compound 0.1 µM, first compound 0.1 µM
[21] = second compound 0.1 µM, first compound 0.316 µM
[22] = second compound 0.1 µM, first compound 1 µM
[23] = second compound 0.1 µM, first compound 3.16 µM
[24] = second compound 0.1 µM, first compound 10 µM
[25] = second compound 0.316 µM, first compound 0.0316 µM
[26] = second compound 0.316 µM, first compound 0.1 µM
[27] = second compound 0.316 µM, first compound 0.316 µM
[28] = second compound 0.316 µM, first compound 1 µM
[29] = second compound 0.316 µM, first compound 3.16 µM
[30] = second compound 0.316 µM, first compound 10 µM
[31] = second compound 1 µM, first compound 0.0316 µM
[32] = second compound 1 µM, first compound 0.1 µM
[33] = second compound 1 µM, first compound 0.316 µM
[34] = second compound 1 µM, first compound 1 µM
[35] = second compound 1 µM, first compound 3.16 µM
[36] = second compound 1 µM, first compound 10 µM
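Also: spheroids exposed to agents for seven days before luminescence read.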
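For viability, T/C in this document: luminescent signal used as a stand-in for spheroid viability; percent viability relative to DMSO vehicle control wells taken as 100%.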

C#Cc1c(F)ccc2cc(O)cc(-c3ncc4c(N5CC6CCC(C5)N6)nc(OCC56CCCN5CC(F)C6)nc4c3F)c12 (stereo unspecified) + COc1c(OCCCN2CCOCC2)ccc2c3n(c(=NC(=O)c4cnc(N)nc4)nc12)CCN3
0.493 µM: IC50 (second compound 0.316 µM)
< 0.0316 µM: IC50 (second compound 1 µM)
> 10 µM: IC50 (second compound 0.00316 µM) | IC50 (second compound 0.01 µM) | IC50 (second compound 0.0316 µM) | IC50 (second compound 0.1 µM)
inactive: viability, T/C [1] 104% | viability, T/C [2] 116% | viability, T/C [3] 114% | viability, T/C [4] 103% | viability, T/C [5] 112% | viability, T/C [6] 111% | viability, T/C [7] 103% | viability, T/C [8] 101% | viability, T/C [9] 102% | viability, T/C [10] 114% | viability, T/C [11] 103% | viability, T/C [12] 103% | viability, T/C [13] 92% | viability, T/C [14] 95.5% | viability, T/C [15] 103% | viability, T/C [16] 93% | viability, T/C [17] 93% | viability, T/C [18] 90.9% | viability, T/C [19] 87.1% | viability, T/C [20] 73.7% | viability, T/C [21] 78.5% | viability, T/C [22] 78.2% | viability, T/C [23] 73.6% | viability, T/C [24] 63.5% | viability, T/C [25] 54.7% | viability, T/C [26] 49.9% | viability, T/C [27] 54.1% | viability, T/C [28] 46.4% | viability, T/C [29] 44.8% | viability, T/C [30] 37.6% | viability, T/C [31] 28.4% | viability, T/C [32] 27.7% | viability, T/C [33] 26.9% | viability, T/C [34] 23.5% | viability, T/C [35] 24.6% | viability, T/C [36] 17.1%

C=CC(=O)N1CCN(c2nc(=O)n(-c3c(C)ccnc3C(C)C)c3nc(-c4c(O)cccc4F)c(F)cc23)C(C)C1 (stereo unspecified) + COc1c(OCCCN2CCOCC2)ccc2c3n(c(=NC(=O)c4cnc(N)nc4)nc12)CCN3
3.43 µM: IC50 (second compound 0.316 µM)
< 0.0316 µM: IC50 (second compound 1 µM)
inactive: viability, T/C [1] 119% | viability, T/C [2] 100% | viability, T/C [3] 112% | viability, T/C [4] 97% | viability, T/C [5] 100% | viability, T/C [6] 99.1% | viability, T/C [7] 93.1% | viability, T/C [8] 96.6% | viability, T/C [9] 104% | viability, T/C [10] 108% | viability, T/C [11] 97.7% | viability, T/C [12] 98.8% | viability, T/C [13] 99.8% | viability, T/C [14] 101% | viability, T/C [15] 92.9% | viability, T/C [16] 99% | viability, T/C [17] 89.7% | viability, T/C [18] 92.7% | viability, T/C [19] 78.1% | viability, T/C [20] 79.3% | viability, T/C [21] 78.7% | viability, T/C [22] 80.6% | viability, T/C [23] 80.2% | viability, T/C [24] 72.7% | viability, T/C [25] 48.7% | viability, T/C [26] 53.1% | viability, T/C [27] 53.2% | viability, T/C [28] 46.7% | viability, T/C [29] 51.8% | viability, T/C [30] 41.2% | viability, T/C [31] 28.9% | viability, T/C [32] 30.5% | viability, T/C [33] 29% | viability, T/C [34] 25.6% | viability, T/C [35] 26.3% | viability, T/C [36] 33.9%
> 10 µM: IC50 (second compound 0.00316 µM) | IC50 (second compound 0.01 µM) | IC50 (second compound 0.0316 µM) | IC50 (second compound 0.1 µM)

CC(Cn1ccc(-c2ccc(C#N)c(Cl)c2)n1)NC(=O)c1cc(C(C)O)[nH]n1 (stereo unspecified) + COc1c(OCCCN2CCOCC2)ccc2c3n(c(=NC(=O)c4cnc(N)nc4)nc12)CCN3
< 0.0316 µM: IC50 (second compound 1 µM)
> 10 µM: IC50 (second compound 0.00316 µM) | IC50 (second compound 0.01 µM) | IC50 (second compound 0.0316 µM) | IC50 (second compound 0.1 µM)
inactive: viability, T/C [1] 106% | viability, T/C [2] 98.6% | viability, T/C [3] 101% | viability, T/C [4] 96.3% | viability, T/C [5] 103% | viability, T/C [6] 98.2% | viability, T/C [7] 101% | viability, T/C [8] 93.2% | viability, T/C [9] 98.2% | viability, T/C [10] 103% | viability, T/C [11] 108% | viability, T/C [12] 105% | viability, T/C [13] 96.6% | viability, T/C [14] 97.4% | viability, T/C [15] 87.3% | viability, T/C [16] 95.6% | viability, T/C [17] 91.9% | viability, T/C [18] 84.5% | viability, T/C [19] 74.5% | viability, T/C [20] 79.9% | viability, T/C [21] 78% | viability, T/C [22] 76.6% | viability, T/C [23] 77% | viability, T/C [24] 68.7% | viability, T/C [25] 54.6% | viability, T/C [26] 50.1% | viability, T/C [27] 49.8% | viability, T/C [28] 48.2% | viability, T/C [29] 40.9% | viability, T/C [30] 38.8% | viability, T/C [31] 26.9% | viability, T/C [32] 28.1% | viability, T/C [33] 28.3% | viability, T/C [34] 28.2% | viability, T/C [35] 24.9% | viability, T/C [36] 23.6%
0.239 µM: IC50 (second compound 0.316 µM)
